Data published in patent US20070112056A1, “Stable modifications of tegaserod hydrogen maleate” (priority 2003, published 2007).
One block for each compound: values may come before it.

Key:
Format in all cases: physicochemical
[1] = Stability of the crystal form when exposed to heat (DSC thermogram)
Procedure: Characteristic for the modification A is the thermogram in differential scanning calorimetry (DSC). It has an endothermic melting peak at about 190° C. The melting enthalpy of the endothermic signal Is 130 J/g±5 J/g. The measurement Is carried out on a Perkin Elmer DSC 7 in a crimped pan with a heating rate of 10 K/minute., The typical sample quantity is about 2 mg. As a typical distinguishing feature compared with the modification B and the acetone solvate, ethanol solvate, the thermogram of the modification A has no further thermal signal (see Table 1a below):
It has an endothermic peak in addition to the one at about 190° C., at 97° C. and melting/crystallization signals at about 181° C. […] The measurement is done as described above.

[2] = Conversion between crystal forms / thermodynamic stability
[3] = Stability of the crystal form in the presence of water
Solubility = assay: Solubility
[4] = compared to modification B and the ethanol, acetone solvate

stability when exposed to heat [1, 4]: more stable when exposed to heat
stability in the presence of water [3, 4]: more stable In the presence of water
Compound: CCCCCNC(=N)N/N=C/c1c[nH]c2ccc(OC)cc12.O=C(O)/C=C\C(=O)O [modification A, modification A of the hydrogen maleate salt of 3-(5-methoxy-1H-indol-3-yl-methylene)-N-pentylcarbazimidamide]
thermodynamic stability ([2]; relative to modification B): thermodynamically more stable than modification B

conversion of crystal form when heating is applied ([1]; DSC, heating rate 10 K/minute): converts into modification A
Compound: CCCCCNC(=N)N/N=C/c1c[nH]c2ccc(OC)cc12.O=C(O)/C=C\C(=O)O [modification B]
conversion of crystal form ([2]; under certain conditions, e.g. heat or water containing organic solvents): completely or partly be converted into modification A

conversion of crystal form by equilibration with water ([3]; equilibration with water): can be transformed into modification A
Compound: CCCCCNC(=N)N/N=C/c1c[nH]c2ccc(OC)cc12.O=C(O)/C=C\C(=O)O [solvate with acetone]

solubility (Solubility): poor
Compound: CCCCCNC(=N)N/N=C/c1c[nH]c2ccc(OC)cc12.O=C(O)/C=C\C(=O)O [tegaserod hydrogen maleate, 3-(5-methox-1H-indol-3-yl-methylene)-N-pentylcarbazimidamide hydrogen maleate]
